Read-outs that look alike come from different tables or passages of the source.
Assays:
[1] = biological target: human recombinant 5-HT2A receptor (Homo sapiens (Human), UniProt P28223); assay: biochemical; type: binding
Description: Test Example 1: 5-HT2A Receptor Binding Inhibition Test
(Each Experimental Condition)
Cell membrane: 15 μg of Jump-In HEK cell membrane (expressing human recombinant 5-HT2A receptor) per well
Assay buffer: Tris-HCl 50 mmol/L (pH 7.4) containing NaCl 120 mmol/L, MgCl2·6H2O 1 mmol/L, KCl 5 mmol/L, 0.1% BSA and CaCl2 2 mmol/L
Radioactive ligand: [^3H]-Ketanserin with a final concentration of 3 nmol/L
(§1) Non-specific ligand: Serotonin HCl with a final concentration of 500 μmol/L
(§2) The Kd value was calculated when the lot of cell membrane was changed. […] The radioactive ligand solution was serially diluted from 16 nM at a 2-fold ratio and the count was confirmed with a liquid scintillator. […] After that, filtration was performed with Cell harvester (PerkinElmer). The radioactive ligand solution was dispensed into an empty well of the GF/B UniFilter plate at 10 μL/well. […] The GF/B UniFilter plate was allowed to stand overnight at room temperature. […] The Saturation curve was drawn from the measured value, and the Kd value was calculated from the slope of the Scatchard Plot.
(§3) (Binding Test of the Compound According to the Present Invention)
(§4) After that, filtration was performed with Cell harvester (PerkinElmer).

[2] = biological target: human recombinant 5-HT2C receptor (Homo sapiens (Human), UniProt P28335); assay: biochemical; type: binding
human recombinant 5-HT2C receptor, sequence (P28335 whole entry, looked up): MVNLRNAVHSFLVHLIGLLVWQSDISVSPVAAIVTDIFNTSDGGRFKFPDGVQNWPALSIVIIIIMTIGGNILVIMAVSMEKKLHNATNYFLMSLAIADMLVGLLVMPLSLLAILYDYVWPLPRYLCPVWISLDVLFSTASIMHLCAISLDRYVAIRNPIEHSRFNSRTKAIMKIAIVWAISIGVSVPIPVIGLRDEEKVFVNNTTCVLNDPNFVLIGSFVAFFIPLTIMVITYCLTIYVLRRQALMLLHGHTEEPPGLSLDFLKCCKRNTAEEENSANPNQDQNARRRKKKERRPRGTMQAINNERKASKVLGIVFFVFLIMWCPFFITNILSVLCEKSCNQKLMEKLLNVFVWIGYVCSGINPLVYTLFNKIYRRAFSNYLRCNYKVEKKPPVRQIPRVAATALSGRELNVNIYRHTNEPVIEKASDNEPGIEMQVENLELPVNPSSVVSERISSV
Description: Test Example 2: 5-HT2C Receptor Binding Inhibition Test
(Each experimental condition)
Cell membrane: 0.5 μg of Jump-In HEK cell membrane (expressing human recombinant 5-HT2C receptor) per well
Assay buffer: Tris-HCl 50 mmol/L (pH 7.4) containing NaCl 120 mmol/L, MgCl2·6H2O 1 mmol/L, KCl 5 mmol/L, 0.1% BSA and CaCl2) 2 mmol/L
Radioactive ligand: [^3H]-Mesulergine with a final concentration of 1 nmol/L
as §1, §2, §3, §4

[3] = [3H]-Ketanserin 3 nmol/L, Jump-In HEK cell membrane, class symbols, read-out: h-5-HT2A Ki
[4] = human serotonin 5-HT2C receptor binding, [3H]-Mesulergine, read-out: h-5-HT2C Ki
[5] = [3H]-Ketanserin 3 nmol/L, Jump-In HEK cell membrane, read-out: human serotonin 5-HT2A receptor binding activity, Ki
[6] = [3H]-Mesulergine 1 nmol/L, Jump-In HEK cell membrane, read-out: human serotonin 5-HT2C receptor binding activity, Ki

SMILES: CC(C)COc1ccc(CNC(=O)N(Cc2ncccc2F)[C@@H]2CCN(C)C[C@@H]2F)cc1 (racemic) [Compound I-069]
- Ki [1, 3]: 0.01 to 0.1 µM
- Ki [2, 4]: > 0.1 µM

SMILES: CC(C)COc1ccc(CNC(=O)N(Cc2ncccc2F)[C@@H]2CCNC[C@@H]2F)cc1 (racemic) [Compound I-073]
- Ki [1, 3]: 0.01 to 0.1 µM
- Ki [2, 4]: > 0.1 µM

SMILES: CC(C)COc1ccc(CNC(=O)N(Cc2ccc(F)cn2)[C@H]2CCN(C)C[C@@H]2O)cc1 (racemic) [Compound I-088]
- Ki [1, 5]: 0.0257 µM
- Ki [2, 6]: 0.134 µM

SMILES: CC(C)COc1ccc(CNC(=O)N(Cc2ccn(C)n2)C2CCNCC23CC3)cc1 (racemic) [Compound I-090]
- Ki [1, 3]: < 0.01 µM
- Ki [2, 4]: < 0.01 µM

SMILES: CC(C)COc1ccc(CNC(=O)N(Cc2ccc(F)cn2)C2CCNCC2(F)F)cc1 (racemic) [Compound I-091]
- Ki [1, 3]: < 0.01 µM
- Ki [2, 4]: < 0.01 µM

SMILES: CC(C)COc1ccc(CNC(=O)N(Cc2ccn(C)c2)[C@@H]2CCNC[C@@H]2F)cc1 (racemic) [Compound I-093]
- Ki [1, 3]: < 0.01 µM
- Ki [2, 4]: < 0.01 µM

SMILES: Cc1cc(CN(C(=O)NCc2ccc(OCC(C)C)cc2)C2CCN(C)CC23CC3)nn1C (racemic) [Compound I-094]
- Ki [1, 3]: < 0.01 µM
- Ki [2, 4]: < 0.01 µM

SMILES: COc1ccc(CNC(=O)N(Cc2ccc(F)cn2)C2CCN(C)CC23CC3)cc1 (racemic) [Compound I-099]
- Ki [1]: < 0.01 µM
- Ki [2]: < 0.01 µM

SMILES: Cc1ccc(CNC(=O)N(Cc2ccc(F)cn2)C2CCN(C)CC23CC3)cc1 (racemic) [Compound I-100]
- Ki [1, 3]: < 0.01 µM
- Ki [2, 4]: 0.01 to 0.1 µM

SMILES: Cc1ccc(CNC(=O)N(Cc2ccc(F)cn2)C2CCNCC23CC3)cc1 (racemic) [Compound I-101]
- Ki [1, 3]: < 0.01 µM
- Ki [2, 4]: 0.01 to 0.1 µM

SMILES: COc1ccc(CNC(=O)N(Cc2cc(C)n(C)n2)C2CCN(C)CC23CC3)cc1 (racemic) [Compound I-104]
- Ki [1, 3]: < 0.01 µM
- Ki [2, 4]: < 0.01 µM

SMILES: Cc1ccc(CNC(=O)N(Cc2cc(C)n(C)n2)C2CCN(C)CC23CC3)cc1 (racemic) [Compound I-105]
- Ki [1, 3]: < 0.01 µM
- Ki [2, 4]: < 0.01 µM

SMILES: CCCOc1ccc(CNC(=O)N(Cc2ccn(C)n2)C2CCNCC23CC3)cc1 (racemic) [Compound I-107]
- Ki [1, 3]: < 0.01 µM
- Ki [2, 4]: 0.01 to 0.1 µM

SMILES: CC(C)COc1ccc(CNC(=O)N(Cc2ccn(C)c2)[C@@H]2CCN(C)C[C@@H]2F)cc1 (racemic) [Compound I-108]
- Ki [1, 3]: < 0.01 µM
- Ki [2, 4]: < 0.01 µM

SMILES: CCCOc1ccc(CNC(=O)N(Cc2cc(C)n(C)n2)C2CCN(C)CC23CC3)cc1 (racemic) [Compound I-109]
- Ki [1, 3]: < 0.01 µM
- Ki [2, 4]: < 0.01 µM

SMILES: CN1CCC(N(Cc2ccn(C)n2)C(=O)NCc2ccc(OCC3CC3)cc2)C2(CC2)C1 (racemic) [Compound I-110]
- Ki [1, 3]: < 0.01 µM
- Ki [2, 4]: < 0.01 µM

SMILES: CN1CCC(N(Cc2ccn(C)n2)C(=O)NCc2ccc(OC(F)F)cc2)C2(CC2)C1 (racemic) [Compound I-111]
- Ki [1, 3]: < 0.01 µM
- Ki [2, 4]: < 0.01 µM

SMILES: CC(C)COc1ccc(CNC(=O)N(Cc2ccc(F)cn2)C2CCN(C)C3(CC3)C2)cc1 (racemic) [Compound I-136]
- Ki [1, 5]: 0.00802 µM
- Ki [2, 6]: 0.148 µM

SMILES: CC(C)COc1ccc(CNC(=O)N(Cc2ccc(Cl)cn2)C2CCN(C)CC2)cc1 [Compound I-009]
- Ki [1, 5]: 0.000291 µM
- Ki [2, 6]: 0.00792 µM

SMILES: CC(C)COc1ccc(CNC(=O)N(Cc2ccn(C)n2)C2CCN(C)CC2)cc1 [Compound I-021]
- Ki [1, 5]: 0.000858 µM
- Ki [2, 6]: 0.0507 µM

SMILES: CC(C)COc1ccc(CNC(=O)N(Cc2cc3ccccc3cn2)C2CCN(C)CC2)cc1 [Compound I-037]
- Ki [1, 5]: 0.000654 µM
- Ki [2, 6]: 0.0282 µM

SMILES: CC(C)COc1ccc(COC(=O)N(Cc2ccc(F)cn2)C2CCN(C)CC2)cc1 [Compound I-042]
- Ki [1, 5]: 0.00115 µM
- Ki [2, 6]: 0.00231 µM

SMILES: COc1ccc(CNC(=O)N(Cc2ccc(F)cn2)C2CCN(C)CC2)cc1 [Compound I-043]
- Ki [1, 5]: 0.00252 µM
- Ki [2, 6]: 0.0557 µM

SMILES: CC(C)COc1ccc(CC(=O)N(Cc2ccc(F)cn2)C2CCN(C)CC2)cc1 [Compound I-068]
- Ki [1, 5]: 0.00652 µM
- Ki [2, 6]: 0.0499 µM

SMILES: CC(C)COc1ccc(CNC(=O)N(Cc2ccc(F)c3cccnc23)C2CCN(C)CC2)cc1 [Compound I-070]
- Ki [1, 3]: < 0.01 µM
- Ki [2, 4]: 0.01 to 0.1 µM

SMILES: CC(C)COc1ccc(CNC(=O)N(Cc2ccc(F)c3ccoc23)C2CCN(C)CC2)cc1 [Compound I-071]
- Ki [1, 5]: 0.0133 µM
- Ki [2, 6]: 0.0607 µM

SMILES: CC(C)COc1ccc(CNC(=O)N(Cc2cc3c(cn2)OCCO3)C2CCN(C)CC2)cc1 [Compound I-072]
- Ki [1, 5]: 0.219 µM
- Ki [2, 6]: 0.617 µM

SMILES: CC(C)COc1ccc(CNC(=O)N(Cc2cn(C)c3cccnc23)C2CCN(C)CC2)cc1 [Compound I-074]
- Ki [1, 3]: 0.01 to 0.1 µM
- Ki [2, 4]: 0.01 to 0.1 µM

SMILES: CN1CCC(N(Cc2ccc(F)cn2)C(=O)NCc2cccc(O)c2)CC1 [Compound I-075]
- Ki [1, 5]: 0.13 µM
- Ki [2, 6]: 1.31 µM

SMILES: CN1CCC(N(Cc2ccc(F)cn2)C(=O)NCc2ccccc2O)CC1 [Compound I-076]
- Ki [1, 5]: 0.062 µM
- Ki [2, 6]: 0.263 µM

SMILES: CC(C)COc1ccc(CNC(=O)N(Cc2ncc(O)cc2F)C2CCN(C)CC2)cc1 [Compound I-077]
- Ki [1, 3]: 0.01 to 0.1 µM
- Ki [2, 4]: > 0.1 µM

SMILES: Cc1cnc(CN(C(=O)NCc2ccc(OCC(C)C)cc2)C2CCN(C)CC2)cn1 [Compound I-078]
- Ki [1, 3]: 0.01 to 0.1 µM
- Ki [2, 4]: > 0.1 µM

SMILES: CC(C)COc1ccc(CNC(=O)N(Cc2cn(C)c3ccccc23)C2CCN(C)CC2)cc1 [Compound I-079]
- Ki [1, 3]: > 0.1 µM
- Ki [2, 4]: > 0.1 µM

SMILES: CC(C)COc1ccc(CNC(=O)N(Cc2ncc(F)cc2O)C2CCN(C)CC2)cc1 [Compound I-080]
- Ki [1, 3]: 0.01 to 0.1 µM
- Ki [2, 4]: 0.01 to 0.1 µM

SMILES: CC(C)COc1ccc(CNC(=O)N(Cc2ccc(F)c3cc[nH]c23)C2CCN(C)CC2)cc1 [Compound I-081]
- Ki [1, 3]: > 0.1 µM
- Ki [2, 4]: > 0.1 µM

SMILES: CN1CCC(N(Cc2ccc(F)cn2)C(=O)NCc2ccc(Br)cc2)CC1 [Compound I-082]
- Ki [1, 5]: 0.00374 µM
- Ki [2, 6]: 0.0288 µM

SMILES: C=Cc1ccc(CNC(=O)N(Cc2ccc(F)cn2)C2CCN(C)CC2)cc1 [Compound I-083]
- Ki [1, 3]: < 0.01 µM
- Ki [2, 4]: 0.01 to 0.1 µM

SMILES: CN1CCC(N(Cc2ccc(F)cn2)C(=O)NCc2ccc(Cl)cc2)CC1 [Compound I-084]
- Ki [1, 5]: 0.00561 µM
- Ki [2, 6]: 0.0652 µM

SMILES: CC(C)COc1ccc(CNC(=O)N(Cc2ccc(F)cn2)[C@@H]2CCN(C)C[C@@H]2F)cc1 [Compound I-085]
- Ki [1, 5]: 0.0238 µM
- Ki [2, 6]: 0.0962 µM

SMILES: CC(C)COc1ccc(CNC(=O)N(Cc2ccc(F)cn2)C2CCN(C)C(CO)C2)cc1 (stereo not shown) [Compound I-089]
- Ki [1, 3]: < 0.01 µM
- Ki [2, 4]: 0.01 to 0.1 µM

SMILES: CN1CCC(N(Cc2ccc(F)cn2)C(=O)NCc2ccc(OCC(C)(F)F)cc2)CC1 [Compound I-092]
- Ki [1, 3]: < 0.01 µM
- Ki [2, 4]: < 0.01 µM

SMILES: CN1CCC(N(Cc2ccc(F)cn2)C(=O)NCc2ccc(OCC(F)(F)F)cc2)CC1 [Compound I-095]
- Ki [1, 3]: < 0.01 µM
- Ki [2, 4]: < 0.01 µM

SMILES: Cc1cc(CN(C(=O)NCc2ccc(OCC(C)C)cc2)C2CCN(C)CC2)nn1C [Compound I-096]
- Ki [1, 3]: < 0.01 µM
- Ki [2, 4]: 0.01 to 0.1 µM

SMILES: C[C@H](F)COc1ccc(CNC(=O)N(Cc2ccc(F)cn2)C2CCN(C)CC2)cc1 [Compound I-097]
- Ki [1, 3]: < 0.01 µM
- Ki [2, 4]: 0.01 to 0.1 µM

SMILES: C[C@@H](F)COc1ccc(CNC(=O)N(Cc2ccc(F)cn2)C2CCN(C)CC2)cc1 [Compound I-098]
- Ki [1, 3]: < 0.01 µM
- Ki [2, 4]: 0.01 to 0.1 µM

SMILES: CC(C)COc1ccc(CNC(=O)N(Cc2ccc(F)cn2)[C@H]2CCN(C)C[C@H]2F)cc1 [Compound I-103]
- Ki [1, 3]: < 0.01 µM
- Ki [2, 4]: < 0.01 µM

SMILES: COc1ccc(COC(=O)N(Cc2ccn(C)c2)C2CCN(C)CC2)cc1 [Compound I-106]
- Ki [1, 3]: < 0.01 µM
- Ki [2, 4]: < 0.01 µM

Reference: patent US12527775B2 (priority 2020, dated 2026)
